From US5843959A, “Methods and bicyclic polyamine compositions for the treatment of inflammation” (University of Florida Research Foundation, Inc., priority 1997, dated 1998) come the findings set out here.

The subject of assay [1] is BALB/c responder splenocytes with CBA/J stimulator cells. Put plainly: Mixed lymphocyte response (MLR). The class given is cell-based, mouse (BALB/c. As to the method: This study examined the potential immunomodulatory activities of PIP[4,4,4] on mouse spleen cells using in vitro techniques. The effect of the compound on the ability of murine splenocytes to respond to the […] mitogen concanavalin A (Con A) and the B cell mitogen lipopolysaccharide (LPS) was studied. […] In addition, the compound was tested for its effect on the mixed lymphocyte response (MLR). The MLR is an in vitro manifestation of cell-mediated immunity in which T cells respond to differences in major histocompatibility complex (MHC) class II molecules (Ia antigens) expressed on foreign or allogeneic leukocytes (primarily B cells and […]/monocytes).
a. Preparation of cells--Under sterile conditions, spleens were removed from BALB/c (H-2^d) and CBA/J (H-2^k) mice. BALB/c splenocytes were used as responder cells in the mitogen assays and the MLR assays, whereas CBA/J cells were used as stimulator cells in the MLR assays. […] Cells were exposed to various concentrations of the test compounds for the entire culture period. The initial dilutions in medium were filter sterilized to maintain aseptic conditions.
c. […] Thus, a BALB/c (2×10^5 cells/well) anti-CBA/J (8×10^5 cells/well) MLR combination was used in these studies. CBA/J spleen cells were irradiated with 2,000 R to prevent them from responding to BALB/c MHC antigens. Triplicate wells were set up in 96-well flat-bottom microtiter plates for all treated cultures and positive controls (100% of control) were performed in replicates of nine wells. Plates were incubated at 37° C. in a humidified CO2 incubator for 5 days, pulsed with 1 μCI […]/well for 6-16 hours, harvested and counted in a liquid scintillation counter. All data were processed using Lotus 1-2-3 and SigmaPlot software.

Assay [2] deals with phenylquinone (P.Q.) writhing. Put plainly: Analgesic activity, phenylquinone writhing. The class given is in vivo, mouse (ICR). On the procedure:
The method of Siegmund et al [Proc. Soc. Exp. Biol. Med., Vol. 95, pages 729-731 (1957)] was used to measure the analgesic activity of PIP[4,4,4]. Groups of 10 male ICR mice weighing 22±2 g were employed. Various doses of test compound, dissolved in a vehicle of distilled water, were administered intraperitoneally. The control group received vehicle alone. […] The mean±SEM number of writhes in each treatment group was calculated and unpaired Student's t test was applied for comparison between vehicle and treated groups. Differences were considered significant when P<0.05.
On the technique in general: An intraperitoneal irritant provokes the stretching counted in writhing tests.

On to `C(CCNCC1CCNCC1)CNCC1CCNCC1` [PIP[4,4,4], N,N'-Bis(4-piperidinylmethyl)-1,4-butanediamine], for which the “Effect on MLR (in words)” value in assay [1] was “MLR was inhibited by PIP[4,4,4] primarily at 10 and 100 μm”. Moreover, the “Proliferative response (CPM), Mean ± SD” value in assay [1] (MLR, 5 days, drug 0.010 μm) amounted to 330859 ± 11640 CPM; in assay [1] (MLR, 5 days, drug 0.100 μm) it was 411919 ± 6106 CPM; in assay [1] (MLR, 5 days, drug 1.000 μm), 54594 ± 11873 CPM; in assay [1] (MLR, 5 days, drug 10.000 μm) it was 568531 ± 6200 CPM; in assay [1] (MLR, 5 days, drug 100.000 μm), 29717 ± 3146 CPM; in assay [1] (MLR, 5 days, drug 1000.000 μm), 22583 ± 2490 CPM. Besides, the activity at 0.01 µM in assay [1] (Mus musculus, Splenocyte, 120 h, MLR, 5 days, drug 0.010 μm, read-out: % Control) was 79%. Moreover, in assay [1] (Mus musculus, Splenocyte, 120 h, MLR, 5 days, drug 0.100 μm, read-out: % Control), the activity at 0.1 µM is 99%. Further, the activity at 1 µM in assay [1] (Mus musculus, Splenocyte, 120 h, MLR, 5 days, drug 1.000 μm, read-out: % Control) came to 131%. Further, in assay [1] (Mus musculus, Splenocyte, 120 h, MLR, 5 days, drug 10.000 μm, read-out: % Control), the activity at 10 µM worked out at 136%. For the same molecule, the activity at 100 µM in assay [1] (Mus musculus, Splenocyte, 120 h, MLR, 5 days, drug 100.000 μm, read-out: % Control) was found to be 71%. Besides, the activity at 1000 µM in assay [1] (Mus musculus, Splenocyte, 120 h, MLR, 5 days, drug 1000.000 μm, read-out: % Control) worked out at 54%. Further, the “% Inhibition (writhing)” value in assay [2] (100 mg/kg i.p.) is recorded as 79%. In assay [2] (100 mg/kg i.p., P.Q. 2 mg/kg i.p. 30 min post dosing, **P < 0.01), the “# Writhes (X ± SEM)” value is listed as 3 ± 1 # WRITHES. Also, the “Analgesic activity (in words)” value in assay [2] (i.p., compared with vehicle control) was “exhibited analgesic activity”.
